According to a compilation of properties of binary mixtures (doi:10.1016/j.jct.2022.106923):

Assay: xn = mol fraction of the nth substance listed
Settings: 101.3 kPa

CO + CC[n+]1ccn(C)c1C.F[B-](F)(F)F
x2 = 0
Settings | viscosity [mPa·s]
293.15 K | 0.57
298.15 K | 0.532
303.15 K | 0.498
313.15 K | 0.439
318.15 K | 0.414
323.15 K | 0.39
328.15 K | 0.37
333.15 K | 0.351

CC[n+]1ccn(C)c1C.F[B-](F)(F)F + CO
viscosity [mPa·s]
Settings | 293.15 K | 298.15 K | 303.15 K | 308.15 K | 313.15 K | 318.15 K | 323.15 K | 328.15 K | 333.15 K
x1 = 0.0165 | 0.863 | 0.803 | 0.75 | 0.701 | 0.658 | 0.619 | 0.583 | 0.55 | 0.522
x1 = 0.0364 | 0.999 | 0.925 | – | 0.801 | 0.752 | 0.706 | – | 0.626 | 0.59
x1 = 0.0608 | 1.27 | 1.177 | 1.096 | – | 0.953 | 0.893 | 0.839 | 0.79 | 0.749
x1 = 0.0915 | 1.45 | – | 1.26 | – | 1.086 | 1.012 | – | – | 0.816
x1 = 0.1313 | – | 1.77 | – | – | 1.4 | 1.3 | – | – | –
x1 = 0.1848 | 2.75 | 2.5 | 2.28 | 2.09 | – | 1.77 | 1.63 | 1.52 | –
x1 = 0.2607 | 4.43 | – | 3.6 | 3.28 | 2.99 | 2.74 | 2.54 | 2.34 | 2.17
x1 = 0.3768 | 9.29 | 8.18 | 7.17 | 6.85 | 6.15 | – | 5.01 | – | 4.13
